Species on record: Rattus norvegicus
Experiment: Open TG-GATES - Regimen: Single
Assay type: toxicity, organism-based, Sprague-Dawley
Parameters: regimen Single, gender Male, age 6 weeks
Settings: in vivo, po, 150 mg/kg, route gavage, dose level High; for APTT / Bas / Eos / Fbg / Hb / Ht / Lym / MCHC / MCV / Mono / Neu / PT / Plat / RBC / Ret / WBC: tissue Blood; for KIDNEY_L / KIDNEY_R / KIDNEY_TOTAL: tissue Kidney; for LIVER: tissue Liver; for ALP / ALT / AST / BUN / CRE / Ca / Cl / DBIL / GLC / IP / K / LDH / Na / PL / RALB / TBIL / TC / TG / TP / gamma-GTP: tissue Plasma

For `C1CCC(C(CC2CCCCN2)C2CCCCC2)CC1` (centres undefined) [PERHEXILINE], the TERMINAL_BW (3 h) was 215.1 g, the APTT (3 h) was 21.8 s and the Bas (3 h) was 0%. The Eos (3 h) was 0.8%, the Fbg (3 h) was 336.6 mg/dL and the Hb (3 h) was 13.3 g/dL. It also gave a Ht (3 h) of 40.3%, a Lym (3 h) of 71.2% and an MCHC (3 h) of 33.1%. For the same compound, the MCV (3 h) was 65.5 fL, the Mono (3 h) was 1.6% and the Neu (3 h) was 24.8%. For the same compound, the PT (3 h) was 16 s, the Plat (3 h) was 129.8 x10_4/uL and the RBC (3 h) was 616 x10_4/ul. The Ret (3 h) was 7.7%, the WBC (3 h) was 64 x10_2/uL and the KIDNEY_L (3 h) was 0.9 g. The KIDNEY_R (3 h) was 1 g, the KIDNEY_TOTAL (3 h) was 1.9 g and the LIVER (3 h) was 9.3 g. It also gave an ALP (3 h) of 1714.6 IU/L, an ALT (3 h) of 57.2 IU/L and an AST (3 h) of 80 IU/L. For the same compound, the BUN (3 h) was 11 mg/dL, the CRE (3 h) was 0.1 mg/dL and the Ca (3 h) was 10.6 mg/dL. It also gave a Cl (3 h) of 104.8 meq/L, a DBIL (3 h) of 0.002 mg/dL and a GLC (3 h) of 173.6 mg/dL. For the same compound, the IP (3 h) was 9.4 mg/dL, the K (3 h) was 3.8 meq/L and the LDH (3 h) was 215.2 IU/L. The Na (3 h) was 140.2 meq/L, the PL (3 h) was 133.2 mg/dL and the RALB (3 h) was 3.2 g/dL. It also gave a TBIL (3 h) of 0.016 mg/dL, a TC (3 h) of 73.2 mg/dL and a TG (3 h) of 46.8 mg/dL. For the same compound, the TP (3 h) was 5.8 g/dL, the gamma-GTP (3 h) was 0.8 IU/L and the TERMINAL_BW (6 h) was 213.5 g. For the same compound, the APTT (6 h) was 22.8 s, the Bas (6 h) was 0% and the Eos (6 h) was 1%. It also gave a Fbg (6 h) of 336.8 mg/dL, a Hb (6 h) of 13.1 g/dL and a Ht (6 h) of 39.1%. It also gave a Lym (6 h) of 68.8%, an MCHC (6 h) of 33.5% and an MCV (6 h) of 62.8 fL. It also gave a Mono (6 h) of 1.8%, a Neu (6 h) of 27.2% and a PT (6 h) of 15.2 s. The Plat (6 h) was 142.9 x10_4/uL, the RBC (6 h) was 622.4 x10_4/ul and the Ret (6 h) was 7.9%. The WBC (6 h) was 59.6 x10_2/uL, the KIDNEY_L (6 h) was 1 g and the KIDNEY_R (6 h) was 1 g. For the same compound, the KIDNEY_TOTAL (6 h) was 1.9 g, the LIVER (6 h) was 9.1 g and the ALP (6 h) was 1591 IU/L. It also gave an ALT (6 h) of 51.8 IU/L, an AST (6 h) of 75.8 IU/L and a BUN (6 h) of 10.6 mg/dL. The CRE (6 h) was 0.1 mg/dL, the Ca (6 h) was 10.6 mg/dL and the Cl (6 h) was 106 meq/L. For the same compound, the DBIL (6 h) was 0.002 mg/dL, the GLC (6 h) was 172.4 mg/dL and the IP (6 h) was 9.2 mg/dL. The K (6 h) was 4.2 meq/L, the LDH (6 h) was 238.8 IU/L and the Na (6 h) was 140.2 meq/L. It also gave a PL (6 h) of 148.6 mg/dL, an RALB (6 h) of 3.2 g/dL and a TBIL (6 h) of 0.018 mg/dL. For the same compound, the TC (6 h) was 75 mg/dL, the TG (6 h) was 82 mg/dL and the TP (6 h) was 5.7 g/dL. It also gave a gamma-GTP (6 h) of 1 IU/L, a TERMINAL_BW (9 h) of 220.6 g and an APTT (9 h) of 21.1 s. It also gave a Bas (9 h) of 0%, an Eos (9 h) of 1% and a Fbg (9 h) of 326.4 mg/dL. The Hb (9 h) was 13.2 g/dL, the Ht (9 h) was 39.7% and the Lym (9 h) was 66.8%. The MCHC (9 h) was 33.2%, the MCV (9 h) was 63.9 fL and the Mono (9 h) was 1.6%. It also gave a Neu (9 h) of 30%, a PT (9 h) of 15.5 s and a Plat (9 h) of 128.9 x10_4/uL. For the same compound, the RBC (9 h) was 622.8 x10_4/ul, the Ret (9 h) was 7.7% and the WBC (9 h) was 64.2 x10_2/uL. For the same compound, the KIDNEY_L (9 h) was 1.1 g, the KIDNEY_R (9 h) was 1.1 g and the KIDNEY_TOTAL (9 h) was 2.1 g. The LIVER (9 h) was 9.7 g, the ALP (9 h) was 1539.6 IU/L and the ALT (9 h) was 39 IU/L. For the same compound, the AST (9 h) was 66.6 IU/L, the BUN (9 h) was 11.4 mg/dL and the CRE (9 h) was 0.1 mg/dL. The Ca (9 h) was 10.9 mg/dL, the Cl (9 h) was 105.2 meq/L and the DBIL (9 h) was 0.004 mg/dL. For the same compound, the GLC (9 h) was 171.2 mg/dL, the IP (9 h) was 9.6 mg/dL and the K (9 h) was 4 meq/L. For the same compound, the LDH (9 h) was 217.8 IU/L, the Na (9 h) was 138.8 meq/L and the PL (9 h) was 121 mg/dL. The RALB (9 h) was 3 g/dL, the TBIL (9 h) was 0.014 mg/dL and the TC (9 h) was 62 mg/dL. It also gave a TG (9 h) of 48.2 mg/dL, a TP (9 h) of 5.6 g/dL and a gamma-GTP (9 h) of 1 IU/L. The TERMINAL_BW (24 h) was 208.6 g, the APTT (24 h) was 21.2 s and the Bas (24 h) was 0%. It also gave an Eos (24 h) of 1%, a Fbg (24 h) of 327.6 mg/dL and a Hb (24 h) of 13.6 g/dL. The Ht (24 h) was 40.4%, the Lym (24 h) was 82% and the MCHC (24 h) was 33.6%. It also gave an MCV (24 h) of 62.7 fL, a Mono (24 h) of 1.2% and a Neu (24 h) of 15.4%. It also gave a PT (24 h) of 16.1 s, a Plat (24 h) of 132.8 x10_4/uL and an RBC (24 h) of 645.6 x10_4/ul. The Ret (24 h) was 6%, the WBC (24 h) was 65.9 x10_2/uL and the KIDNEY_L (24 h) was 0.9 g. The KIDNEY_R (24 h) was 1 g, the KIDNEY_TOTAL (24 h) was 1.9 g and the LIVER (24 h) was 9.4 g. The ALP (24 h) was 1840.2 IU/L, the ALT (24 h) was 50 IU/L and the AST (24 h) was 71.6 IU/L. For the same compound, the BUN (24 h) was 15.4 mg/dL, the CRE (24 h) was 0.1 mg/dL and the Ca (24 h) was 10.7 mg/dL. It also gave a Cl (24 h) of 106.8 meq/L, a DBIL (24 h) of 0 mg/dL and a GLC (24 h) of 170.2 mg/dL. The IP (24 h) was 7.9 mg/dL, the K (24 h) was 4.2 meq/L and the LDH (24 h) was 256.2 IU/L. It also gave a Na (24 h) of 141.8 meq/L, a PL (24 h) of 149 mg/dL and an RALB (24 h) of 3.2 g/dL. The TBIL (24 h) was 0.012 mg/dL, the TC (24 h) was 79.6 mg/dL and the TG (24 h) was 78 mg/dL. For the same compound, the TP (24 h) was 5.8 g/dL and the gamma-GTP (24 h) was 1 IU/L.
